One test concerns the target kappa opioid receptor (OPRK1) (Homo sapiens (Human), UniProt P41145). Put plainly: OPRK1 antagonist assay (b-arrestin-2-TEV / b-lactamase reporter cell line, EC80 U-50488 challenge). It is filed as cell-based. The conditions noted are these: % inhibition at the concentration given.
Chain of kappa opioid receptor (OPRK1) (P41145 whole entry): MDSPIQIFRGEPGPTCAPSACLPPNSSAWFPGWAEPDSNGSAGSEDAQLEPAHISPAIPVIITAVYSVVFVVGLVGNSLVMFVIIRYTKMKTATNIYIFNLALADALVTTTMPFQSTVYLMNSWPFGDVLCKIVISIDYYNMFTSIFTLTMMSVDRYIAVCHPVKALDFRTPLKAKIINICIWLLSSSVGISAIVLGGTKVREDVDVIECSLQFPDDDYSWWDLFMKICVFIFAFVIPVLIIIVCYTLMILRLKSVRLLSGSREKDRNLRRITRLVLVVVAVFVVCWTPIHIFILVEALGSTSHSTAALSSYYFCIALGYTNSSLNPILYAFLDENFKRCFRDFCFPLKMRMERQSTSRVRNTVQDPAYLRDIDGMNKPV
Regarding `O=C(O)c1cc(Br)cnc1N1CCC(NC2CCCCC2)CC1` [compound 34], the “% inhib if other than 50%” value turned out to be 85%.

Staying with this test, now noted: read-out: IC50 nM (% inhib if other than 50%); antagonist mode vs EC80 U-50488; NA = not active at concentrations up to 10 μM.
With `COC1CN(c2nc3ccccc3cc2-c2nc(C)no2)CCC1NCC(C)C` (stereo not drawn) [compound 374], the IC50 – broadly, the midpoint of a concentration-inhibition curve – is 45 nM.
Still for that read-out and setting: the same measure for `CO[C@@H]1CN(c2nc3ccc(C)cc3cc2C(C)=O)CC[C@@H]1NC1CCCCC1` [compound 484]: 347 nM; for `Cc1ccc2nc(N3CCC(NC[C@@H](C)O)CC3)c(-c3nc(C)no3)cc2c1` [compound 421]: 48 nM.
Consider `COC(=O)c1cc(I)cnc1N1CCC(NC2CCCCCC2)C(CO)C1` (stereo not drawn) [compound 75], for which the IC50 amounted to 36 nM.
Same read-out and setting: the same measure for `CO[C@@H]1CN(c2nc3ccc(C)cc3cc2-c2noc(C)n2)CC[C@@H]1NC1CCCCC1` [compound 382]: 83 nM; for `Cc1ccc2cc(-c3nc(C)no3)c(N3CCC(NC4CCOCC4)CC3)nc2c1` [compound 257]: 930 nM.
Same read-out and setting: the same measure for `CCc1ccc2nc(N3CCC(N[C@H](C)CC)CC3)c(-c3nc(C)no3)cc2c1` [compound 525]: 17 nM; for `COC(=O)c1cc(Br)cnc1N1CC2C(C1)C2NC1CCCCC1` (stereo not drawn) [C27]: 21000 nM; for `Cc1cnc(N2CCC(NC3CCCCC3C)C(CO)C2)c(-c2nc(C)no2)c1` (stereo not drawn) [compound 203]: 132 nM.
On the same count and under the same terms, the value for `COC(=O)c1cc(Br)cnc1N1CCC(NC2CC2)CC1` [compound 78] was 1200 nM; that for `COC(=O)c1cc(I)cnc1N1CCC(NC2CCOCC2)C(CO)C1` (stereo not drawn) [compound 90] was 186 nM.
Consider `Cc1ccc2nc(N3CCC(NC(C)C4CCCCC4)CC3)c(-c3nc(C)no3)cc2c1` (stereo not drawn) [compound 349], for which the IC50 turned out to be 21 nM.
Consider `COC(=O)c1cc(Br)cnc1N1CCC(NC2CCOCC2)CC1` [compound 13], for which the IC50 was found to be 621 nM.
Same read-out and setting: the same measure for `Cc1nc(-c2cc3ccc(F)c(C)c3nc2N2CCC(NCC(C)C)CC2)no1` [compound 505]: 126 nM; for `CC(=O)c1cc2cc(C)ccc2nc1N1CCC(NC2CCOCC2)CC1` [compound 478]: 900 nM; for `Cc1ccc2cc(-c3nc(C)no3)c(N3CCC(NC4CCCCC4O)CC3)nc2c1` (stereo not drawn) [compound 256]: 631 nM.
The same measure, in the same setting: the value for `COC1CN(c2nnc(C)cc2C(=O)OC(C)C)CCC1NCC(C)C` (stereo not drawn) [compound 408] was 57 nM; that for `COC(=O)c1cc(Br)cnc1N1CCC(NC2CCCC(O)C2)CC1` (stereo not drawn) [compound 10] was 652 nM.
In the case of `Cc1noc(-c2cc3ccc(F)c(C)c3nc2N2CCC(NC3CCOCC3)CC2)n1` [compound 493], the IC50 was 132 nM.
In the case of `CC(=O)c1cc(Br)cnc1N1CC[C@@H](NC2CCCCC2)[C@H](O)C1` [compound 127], the half-maximal inhibitory concentration (IC50) turned out to be 33 nM.
Still for that read-out and setting: the same measure for `CO[C@H]1CN(c2ncc(C)cc2-c2cnc(C)cn2)CC[C@H]1NC1CCCCC1` [compound 472]: 105 nM; for `Cc1noc(-c2nc3ccccc3nc2N2CCC(NC3CCCC3)C(CO)C2)n1` (stereo not drawn) [compound 202]: 187 nM; for `Cc1ccc2nc(N3CCC(NC4COC4)CC3)c(-c3nc(C)no3)cc2c1` [compound 270]: 4470 nM.
For the compound `COC(=O)c1cccnc1N1CCC(NC2CCCCC2OC)C(O)C1` (stereo not drawn) [compound 54], the IC50 stood at 559 nM.
In the case of `COC(=O)c1cc(I)cnc1N1CCC(NC2CCCC2)C(CO)C1` (stereo not drawn) [compound 88], the IC50 was 52 nM.
Same read-out and setting: the same measure for `COC1CN(c2nc(C)c(C)cc2-c2nc(C)no2)CCC1NC1CCCC1` (stereo not drawn) [compound 317]: 27 nM; for `Cc1ccc2nc(N3CCC(NC4CCC(C)CC4)CC3)c(-c3nc(C)no3)cc2c1` (stereo not drawn) [compound 350]: 0.97 nM; for `COC(=O)c1cc(Br)cnc1N1CCC(NC2CC3CCC2C3)CC1` (stereo not drawn) [compound 28]: 387 nM.
The same measure, in the same setting: the same measure for `Cc1noc(-c2cc(Br)cnc2N2CCC(NC3CCCCC3)CC2)n1` [compound 41]: 331 nM; for `Cc1ccc2nc(N3CCC(NC4CCOCC4)CC3)c(-c3nc(C)no3)nc2c1` [compound 518]: 410 nM.
The same measure, in the same setting: the same measure for `CO[C@H]1CN(c2ncc(C)cc2-c2nc(C)no2)CC[C@H]1NC1CCCCC1` [compound 299]: 25 nM; for `CC(=O)c1cc2cc(C)ccc2nc1N1CCC(NC2CCCCC2)CC1` [compound 479]: 211 nM; for `COC(=O)c1cc(Br)cnc1N1CCC(NC2CCOCC2)C(CO)C1` (stereo not drawn) [compound 81]: 126 nM.
With `COC(=O)c1cc(Br)cnc1N1CCC(NC2CCCCC2)CC1` [compound 7], the IC50 was 133 nM.
For `Cc1nc(-c2cc3cc(C)c(F)cc3nc2N2CCC(NC3CCOCC3)CC2)no1` [compound 507], the IC50 is 43 nM.
The same measure, in the same setting: the same measure for `Cc1ccc2nc(N3CCC(NCC(C)C)CC3)c(-c3ccncn3)cc2c1` [compound 534]: 600 nM.
Still for that read-out and setting: the value for `CCc1noc(-c2cc3cc(C)ccc3nc2N2CCC(NC3CCCCC3)C(OC)C2)n1` (stereo not drawn) [compound 283] was 4 nM; that for `Cc1noc(-c2cc3c(F)cccc3nc2N2CC[C@@H](NC3CCCCC3)[C@H](O)C2)n1` [compound 251] was 11 nM.
The same measure, in the same setting: the same measure for `Cc1noc(-c2cc3c(F)cccc3nc2N2CCC(NC3CCCCC3)C(CO)C2)n1` (stereo not drawn) [compound 253]: 10 nM.
With `COC1CN(c2ncc(C)cc2C=O)CCC1NC1CCCCC1` (stereo not drawn) [C69], the concentration for half-maximal inhibition (IC50) was determined as 30000 nM.
Still for that read-out and setting: the same measure for `OCc1cc(Br)cnc1N1CCC(NC2CCCCC2)CC1` [compound 76]: 11300 nM; for `COC1CN(c2nc3ccc(C)cc3cc2C(=O)OC(C)C)CCC1NC1CCCCC1` (stereo not drawn) [compound 282]: 38 nM.
`CCOC(=O)c1cc(C(=O)OC)c(C)nc1N1CCC(NC2CCCCC2)C1` (stereo not drawn) [compound 104]: the IC50 was determined as 2200 nM.
Still for that read-out and setting: the value for `O[C@@H]1CN(c2ncc(Br)cc2-c2nc(C3CC3)no2)CC[C@H]1NC1CCCCC1` [compound 150] was 9100 nM.
On the same count and under the same terms, the value for `CCOC(=O)c1cc(C(=O)OC)c(C)nc1N1CCC(NC2CCCCC2)C(O)C1` (stereo not drawn) [compound 94] was 61 nM; that for `Cc1ccc2nc(N3CCC(NC4CCOCC4)CC3)c(-c3nc(C4CC4)no3)cc2c1` [compound 305] was 17 nM; that for `CCCC(=O)Nc1cnc(N2CCC(NC3CCCCC3)CC2)c(C(=O)OC)c1` [compound 95] was 1.4 nM.
Still for that read-out and setting: the value for `COC(=O)c1cc(Br)cnc1N1CCC(N2CCCCC2)CC1` [compound 18] was 2100 nM; that for `COC(=O)c1cc(C)c(C)nc1N1CC[C@@H](NC2CCCCC2)[C@H](O)C1` [compound 161] was 157 nM.
Consider `Cc1noc(-c2cc3cc(Cl)ccc3nc2N2CCC(NC3CCCCC3)C(CO)C2)n1` (stereo not drawn) [compound 239], for which the IC50 was found to be 16 nM.
The same measure, in the same setting: the value for `COC(=O)c1cc(Br)cnc1N1CCC(NC2CCCCC2)C(F)C1` (stereo not drawn) [compound 52] was 3400 nM.
On the same count and under the same terms, the value for `COC(=O)c1cc(Br)cnc1N1CCC(NC2C3CC4CC(C3)CC2C4)CC1` (stereo not drawn) [compound 11] was 2800 nM; that for `COC(=O)c1cc(Br)cnc1N1CCC(N(C)C2CCCCC2)C(O)C1` (stereo not drawn) [compound 51] was 3000 nM; that for `COC(=O)c1cc(I)cnc1N1CCC(NC2CCCCC2)C(OC)C1` (stereo not drawn) [compound 123] was 11 nM.
The same measure, in the same setting: the same measure for `Cc1cnc(N2CC[C@@H](NC3CCCCC3)[C@H](O)C2)c(C#N)c1` [C67]: 37000 nM; for `Cc1ccc2nc(N3CCC(NC4CCCCC4F)CC3)c(-c3nc(C)no3)cc2c1` (stereo not drawn) [compound 250]: 8 nM.
For the compound `CO[C@H]1CN(c2nc3ccc(C)cc3cc2-c2nc(C)no2)CC[C@H]1NC1CCC(F)(F)CC1` [compound 521], the half-inhibitory concentration (IC50) is 278 nM.
Same read-out and setting: the value for `Cc1noc(-c2cc(C(F)(F)F)cnc2N2CCC(NC3CCCCC3)C(CO)C2)n1` (stereo not drawn) [compound 187] was 341 nM; that for `Cc1ccc2nc(N3CCC(NCC(C)O)CC3)c(-c3nc(C)no3)cc2c1` (stereo not drawn) [compound 360] was 8 nM.
For the compound `CO[C@H]1CN(c2nc3cc(F)ccc3cc2-c2nc(C)no2)CC[C@H]1NCC(C)C` [compound 538], the IC50 stood at 970 nM.
Same read-out and setting: the same measure for `Cc1cnc(N2CCC(NC3CCCCC3)CC2)c(-c2ccncn2)c1` [compound 517]: 1140 nM; for `COC1CN(c2nc3ccc(C)cc3cc2-c2noc(C)n2)CCC1NCC(C)C` (stereo not drawn) [compound 377]: 69 nM.
The same measure, in the same setting: the same measure for `Cc1ccc2nc(N3CCC(N4CCCCC4)CC3)c(-c3nc(C)no3)cc2c1` [compound 266]: 1740 nM; for `COC(=O)c1cc(C)cnc1N1CC[C@@H](NC2CCCCC2)[C@H](O)C1` [compound 128]: 35 nM; for `CO[C@H]1CN(c2nc3ccc(C)cc3nc2-c2nc(C)no2)CC[C@H]1NC1CCCCC1` [compound 519]: 95 nM.
As to `COC1CN(c2nc3c(cc2-c2nc(C)no2)CCC3)CCC1NC1CCCCC1` (stereo not drawn) [compound 210], the IC50 amounted to 72 nM.
On to `COC1CN(c2nc3ccccc3cc2-c2nc(C)no2)CCC1NC1CCCC1` (stereo not drawn) [compound 308], for which the half-maximal inhibitory concentration (IC50) turned out to be 2.5 nM.
The same measure, in the same setting: the same measure for `CO[C@H]1CN(c2nc3ccc(C)cc3cc2C(=O)OC(C)C)CC[C@H]1NC1CCCCC1` [compound 343]: 10.6 nM.
The same measure, in the same setting: the value for `COC(=O)c1cc(Br)cnc1N1CC(O)C(NC2CCCCC2)C1` (stereo not drawn) [compound 48] was 459 nM; that for `CC(C)OC(=O)c1cc(Br)cnc1N1CC[C@@H](NC2CCCCC2)[C@H](O)C1` [compound 135] was 1630 nM.
On the same count and under the same terms, the same measure for `Cc1noc(-c2cc3ccccc3nc2N2CC(NC3CCCCC3)C2)n1` [compound 234]: 596 nM; for `Cc1ccc2nc(N3CCC(NC4CCOCC4)CC3)c(-c3ccc(C)o3)cc2c1` [compound 501]: 331 nM; for `O=C(O)c1cc(Br)cnc1N1CCC(NC2CCCCC2)CC1` [compound 34]: 5200 nM.
As to `COC1CN(c2nc(C)c(C)cc2-c2nc(C)no2)CCC1NC1CCCCCC1` (stereo not drawn) [compound 319], the IC50 was 21 nM.
Same read-out and setting: the value for `COC1CN(c2nc3ccccc3cc2-c2ncccn2)CCC1NC1CCCCC1` (stereo not drawn) [compound 263] was 1770 nM.
On the same count and under the same terms, the value for `Cc1noc(-c2cc3ccccc3nc2N2CC[C@@H](NC3CCCCC3)[C@H](O)C2)n1` [compound 192] was 199 nM.
Consider `Cc1cnc(N2CCC(NC3CCCCC3)C(CO)C2)c(-c2ncccn2)c1` (stereo not drawn) [compound 245], for which the IC50 was 79 nM.

Source of the values: patent US20250346584A1, “NOVEL KAPPA OPIOID LIGANDS” (The Scripps Research Institute, priority 2012, published 2025).
